Measured values taken from ChEMBL document CHEMBL3885881, “DrugMatrix”.

Species on record: Rattus norvegicus
Test: DrugMatrix - Regimen: Daily Repeat
Type: toxicity, organism-based, Sprague-Dawley
Parameters: regimen Daily Repeat, gender Male, age 6-8 weeks
Conditions: in vivo, vehicle 100 % SALINE; for SODIUM / TOTAL BILIRUBIN / TOTAL PROTEIN / URIC ACID / ALANINE AMINOTRANSFERASE / ALBUMIN / ALKALINE PHOSPHATASE / ASPARTATE AMINOTRANSFERASE / BLOOD UREA NITROGEN / CARBON DIOXIDE / CHLORIDE / CHOLESTEROL / CREATINE PHOSPHOKINASE / CREATININE / GLUCOSE / LACTATE DEHYDROGENASE / LIPASE / PHOSPHORUS / POTASSIUM: tissue Plasma; for ABSOLUTE BASOPHIL / ABSOLUTE EOSINOPHIL / ABSOLUTE LYMPHOCYTE / ABSOLUTE MONOCYTE / ABSOLUTE SEGMENTED NEUTROPHIL / BASOPHIL / EOSINOPHIL / ERYTHROCYTE COUNT / HEMATOCRIT / HEMOGLOBIN / LEUKOCYTE COUNT / LYMPHOCYTE / MEAN CORPUSCULAR HEMOGLOBIN / MEAN CORPUSCULAR HEMOGLOBIN CONCENTRATION / MEAN CORPUSCULAR VOLUME / MONOCYTE / NEUTROPHIL / NUCLEATED RED BLOOD CELLS / PLATELET COUNT: tissue Blood
[1] = ip, 40 mg/kg, […], route intraperitoneal, dose level High, time 28 day
[2] = iv, 41 mg/kg, 72 h, dose level High, time 3 day
[3] = iv, 41 mg/kg, 120 h, dose level High, time 5 day
[4] = iv, […], 72 h, dose 4.1 mg/Kg, dose level Low, time 3 day
[5] = iv, […], 120 h, dose 4.1 mg/Kg, dose level Low, time 5 day

Structure (SMILES): CCN[C@@H]1C[C@H](N)[C@@H](O[C@H]2OC(CN)=CC[C@H]2N)[C@H](O)[C@H]1O[C@H]1OC[C@](C)(O)[C@H](NC)[C@H]1O [NETILMICIN]
- SODIUM [1]: 152.1 MEQ/L
- TOTAL BILIRUBIN [1]: 0.18 mg/dL
- TOTAL PROTEIN [1]: 6.45 G/DL
- URIC ACID [1]: 1.03 mg/dL
- ABSOLUTE BASOPHIL [2]: 0 CELLS/uL
- ABSOLUTE EOSINOPHIL [2]: 0 CELLS/uL
- ABSOLUTE LYMPHOCYTE [2]: 13244.67 CELLS/uL
- ABSOLUTE MONOCYTE [2]: 92.33 CELLS/uL
- ABSOLUTE SEGMENTED NEUTROPHIL [2]: 896.33 CELLS/uL
- BASOPHIL [2]: 0%
- EOSINOPHIL [2]: 0%
- ERYTHROCYTE COUNT [2]: 5.54 x10E6/uL
- HEMATOCRIT [2]: 34.4%
- HEMOGLOBIN [2]: 13.9 G/DL
- LEUKOCYTE COUNT [2]: 14.23 x10E3/uL
- LYMPHOCYTE [2]: 93%
- MEAN CORPUSCULAR HEMOGLOBIN [2]: 25.07 pg
- MEAN CORPUSCULAR HEMOGLOBIN CONCENTRATION [2]: 40.4 G/DL
- MEAN CORPUSCULAR VOLUME [2]: 62.1 fL
- MONOCYTE [2]: 0.67%
- NEUTROPHIL [2]: 6.33%
- NUCLEATED RED BLOOD CELLS [2]: 0 /100WBC
- PLATELET COUNT [2]: 1289.67 x10E3/uL
- ALANINE AMINOTRANSFERASE [2]: 47 u/L
- ALBUMIN [2]: 4.27 G/DL
- ALKALINE PHOSPHATASE [2]: 408.33 u/L
- ASPARTATE AMINOTRANSFERASE [2]: 78.67 u/L
- BLOOD UREA NITROGEN [2]: 16.33 mg/dL
- CARBON DIOXIDE [2]: 32 mmol/L
- CHLORIDE [2]: 102.67 MEQ/L
- CHOLESTEROL [2]: 64.33 mg/dL
- CREATINE PHOSPHOKINASE [2]: 176 u/L
- CREATININE [2]: 0.16 mg/dL
- GLUCOSE [2]: 156.33 mg/dL
- LACTATE DEHYDROGENASE [2]: 111.67 u/L
- LIPASE [2]: 9.33 u/L
- PHOSPHORUS [2]: 12.53 mg/dL
- POTASSIUM [2]: 7.26 MEQ/L
- SODIUM [2]: 144.53 MEQ/L
- TOTAL BILIRUBIN [2]: 0.23 mg/dL
- TOTAL PROTEIN [2]: 5.97 G/DL
- URIC ACID [2]: 1.77 mg/dL
- ABSOLUTE BASOPHIL [3]: 0 CELLS/uL
- ABSOLUTE EOSINOPHIL [3]: 0 CELLS/uL
- ABSOLUTE LYMPHOCYTE [3]: 14425.67 CELLS/uL
- ABSOLUTE MONOCYTE [3]: 210.67 CELLS/uL
- ABSOLUTE SEGMENTED NEUTROPHIL [3]: 463.67 CELLS/uL
- BASOPHIL [3]: 0%
- EOSINOPHIL [3]: 0%
- ERYTHROCYTE COUNT [3]: 5.76 x10E6/uL
- HEMATOCRIT [3]: 36.3%
- HEMOGLOBIN [3]: 14.47 G/DL
- LEUKOCYTE COUNT [3]: 15.1 x10E3/uL
- LYMPHOCYTE [3]: 95.67%
- MEAN CORPUSCULAR HEMOGLOBIN [3]: 25.1 pg
- MEAN CORPUSCULAR HEMOGLOBIN CONCENTRATION [3]: 39.87 G/DL
- MEAN CORPUSCULAR VOLUME [3]: 62.97 fL
- MONOCYTE [3]: 1.33%
- NEUTROPHIL [3]: 3%
- NUCLEATED RED BLOOD CELLS [3]: 0.33 /100WBC
- PLATELET COUNT [3]: 1375.67 x10E3/uL
- ALANINE AMINOTRANSFERASE [3]: 52 u/L
- ALBUMIN [3]: 4.33 G/DL
- ALKALINE PHOSPHATASE [3]: 313.33 u/L
- ASPARTATE AMINOTRANSFERASE [3]: 87.67 u/L
- BLOOD UREA NITROGEN [3]: 18.33 mg/dL
- CARBON DIOXIDE [3]: 35 mmol/L
- CHLORIDE [3]: 100.33 MEQ/L
- CHOLESTEROL [3]: 60.67 mg/dL
- CREATINE PHOSPHOKINASE [3]: 309.33 u/L
- CREATININE [3]: 0.19 mg/dL
- GLUCOSE [3]: 145.33 mg/dL
- LACTATE DEHYDROGENASE [3]: 281 u/L
- LIPASE [3]: 10.33 u/L
- PHOSPHORUS [3]: 11.93 mg/dL
- POTASSIUM [3]: 7.18 MEQ/L
- SODIUM [3]: 145.03 MEQ/L
- TOTAL BILIRUBIN [3]: 0.17 mg/dL
- TOTAL PROTEIN [3]: 6.23 G/DL
- URIC ACID [3]: 1.8 mg/dL
- ABSOLUTE BASOPHIL [4]: 0 CELLS/uL
- ABSOLUTE EOSINOPHIL [4]: 0 CELLS/uL
- ABSOLUTE LYMPHOCYTE [4]: 4768 CELLS/uL
- ABSOLUTE MONOCYTE [4]: 54 CELLS/uL
- ABSOLUTE SEGMENTED NEUTROPHIL [4]: 578 CELLS/uL
- BASOPHIL [4]: 0%
- EOSINOPHIL [4]: 0%
- ERYTHROCYTE COUNT [4]: 5.02 x10E6/uL
- HEMATOCRIT [4]: 31.53%
- HEMOGLOBIN [4]: 12.37 G/DL
- LEUKOCYTE COUNT [4]: 5.4 x10E3/uL
- LYMPHOCYTE [4]: 88.33%
- MEAN CORPUSCULAR HEMOGLOBIN [4]: 24.67 pg
- MEAN CORPUSCULAR HEMOGLOBIN CONCENTRATION [4]: 39.23 G/DL
- MEAN CORPUSCULAR VOLUME [4]: 62.83 fL
- MONOCYTE [4]: 1%
- NEUTROPHIL [4]: 10.67%
- NUCLEATED RED BLOOD CELLS [4]: 0.33 /100WBC
- PLATELET COUNT [4]: 1171 x10E3/uL
- ALANINE AMINOTRANSFERASE [4]: 52.33 u/L
- ALBUMIN [4]: 4.23 G/DL
- ALKALINE PHOSPHATASE [4]: 370.33 u/L
- ASPARTATE AMINOTRANSFERASE [4]: 91.67 u/L
- BLOOD UREA NITROGEN [4]: 16 mg/dL
- CARBON DIOXIDE [4]: 33.67 mmol/L
- CHLORIDE [4]: 99.33 MEQ/L
- CHOLESTEROL [4]: 62 mg/dL
- CREATINE PHOSPHOKINASE [4]: 447.67 u/L
- CREATININE [4]: 0.17 mg/dL
- GLUCOSE [4]: 154 mg/dL
- LACTATE DEHYDROGENASE [4]: 115.33 u/L
- LIPASE [4]: 9.33 u/L
- PHOSPHORUS [4]: 10.83 mg/dL
- POTASSIUM [4]: 6.02 MEQ/L
- SODIUM [4]: 143.23 MEQ/L
- TOTAL BILIRUBIN [4]: 0.23 mg/dL
- TOTAL PROTEIN [4]: 6.03 G/DL
- URIC ACID [4]: 0.8 mg/dL
- ABSOLUTE BASOPHIL [5]: 0 CELLS/uL
- ABSOLUTE EOSINOPHIL [5]: 0 CELLS/uL
- ABSOLUTE LYMPHOCYTE [5]: 13577.67 CELLS/uL
- ABSOLUTE MONOCYTE [5]: 137 CELLS/uL
- ABSOLUTE SEGMENTED NEUTROPHIL [5]: 1018.67 CELLS/uL
- BASOPHIL [5]: 0%
- EOSINOPHIL [5]: 0%
- ERYTHROCYTE COUNT [5]: 5.81 x10E6/uL
- HEMATOCRIT [5]: 36.13%
- HEMOGLOBIN [5]: 14.33 G/DL
- LEUKOCYTE COUNT [5]: 14.73 x10E3/uL
- LYMPHOCYTE [5]: 92%
- MEAN CORPUSCULAR HEMOGLOBIN [5]: 24.7 pg
- MEAN CORPUSCULAR HEMOGLOBIN CONCENTRATION [5]: 39.7 G/DL
- MEAN CORPUSCULAR VOLUME [5]: 62.17 fL
- MONOCYTE [5]: 1%
- NEUTROPHIL [5]: 7%
- NUCLEATED RED BLOOD CELLS [5]: 0 /100WBC
- PLATELET COUNT [5]: 1276.33 x10E3/uL
- ALANINE AMINOTRANSFERASE [5]: 46.33 u/L
- ALBUMIN [5]: 4.3 G/DL
- ALKALINE PHOSPHATASE [5]: 383.33 u/L
- ASPARTATE AMINOTRANSFERASE [5]: 80.67 u/L
- BLOOD UREA NITROGEN [5]: 16 mg/dL
- CARBON DIOXIDE [5]: 31.67 mmol/L
- CHLORIDE [5]: 101.33 MEQ/L
- CHOLESTEROL [5]: 83.33 mg/dL
- CREATINE PHOSPHOKINASE [5]: 216.67 u/L
- CREATININE [5]: 0.17 mg/dL
- GLUCOSE [5]: 166.33 mg/dL
- LACTATE DEHYDROGENASE [5]: 180 u/L
- LIPASE [5]: 9.33 u/L
- PHOSPHORUS [5]: 13.33 mg/dL
- POTASSIUM [5]: 7.09 MEQ/L
- SODIUM [5]: 145.07 MEQ/L
- TOTAL BILIRUBIN [5]: 0.13 mg/dL
- TOTAL PROTEIN [5]: 6.3 G/DL
- URIC ACID [5]: 1.93 mg/dL
